# Results published in PubChem BioAssay AID2060895 (Molecular Pharmacology Branch, DTP, NCI, 2025).
# Tested on: PDC 899932-113-R3-J6 complex spheroid viability
# Assay: Anticancer human tumor 899932-113-R3-J6-PDC patient-derived melanoma cell line growth inhibition [RAS]
# Conditions: for viability, T/C: stronger effect = lower value
# Procedure, shortened: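 Multi-cell-type spheroids: tumor cells plus HUVEC endothelial cells and mesenchymal stem cells. RAS-pathway inhibitors were combined with targeted agents, each dosed in half-log steps down from clinical Cmax, or from 10 microM when Cmax was unknown.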
# 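Throughout, for viability, T/C: spheroids exposed to agents for seven days before readout; 100% = DMSO vehicle control wells.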
compound,measurement,setting,value
CC(C)NCC(C(=O)N1CCN(c2ncnc3c2C(C)CC3O)CC1)c1ccc(Cl)cc1 (centres undefined),"viability, T/C",compound 0.0316 µM,110% [middle of 4 runs]
same,"viability, T/C",compound 0.1 µM,99.1% [middle of 4 runs]
same,"viability, T/C",compound 0.316 µM,97.7% [middle of 4 runs]
same,"viability, T/C",compound 1 µM,84.7% [middle of 4 runs]
same,"viability, T/C",compound 3.16 µM,62.5% [middle of 4 runs]
same,"viability, T/C",compound 10 µM,39.9% [middle of 4 runs]
same,IC50,curve of compound,5.72 µM [middle of 4 runs]
CCc1c2c(nc3ccc(O)cc13)-c1cc3c(c(=O)n1C2)COC(=O)[C@]3(O)CC + CCn1c(-c2cc(N3CCN(C)CC3)cnc2C(C)OC)c2c3cc(ccc31)-c1csc(n1)CC(NC(=O)C1CC1C)C(=O)N1CCCC(N1)C(=O)OCC(C)(C)C2,IC50,"curve of first compound, second compound 0.000949 µM",2000 pM
same,IC50,"curve of first compound, second compound 0.003 µM",< 949 pM
same,IC50,"curve of first compound, second compound 0.00949 µM",< 949 pM
same,IC50,"curve of first compound, second compound 0.03 µM",< 949 pM
same,IC50,"curve of first compound, second compound 0.0949 µM",< 949 pM
same,IC50,"curve of first compound, second compound 0.3 µM",< 949 pM
same,"viability, T/C","second compound 0.000949 µM, first compound 0.000949 µM",63.8%
same,"viability, T/C","second compound 0.000949 µM, first compound 0.003 µM",39.8%
same,"viability, T/C","second compound 0.000949 µM, first compound 0.00949 µM",36%
same,"viability, T/C","second compound 0.000949 µM, first compound 0.03 µM",26.9%
same,"viability, T/C","second compound 0.000949 µM, first compound 0.0949 µM",22.6%
same,"viability, T/C","second compound 0.000949 µM, first compound 0.3 µM",23%
same,"viability, T/C","second compound 0.003 µM, first compound 0.000949 µM",31.1%
same,"viability, T/C","second compound 0.003 µM, first compound 0.003 µM",24.2%
same,"viability, T/C","second compound 0.003 µM, first compound 0.00949 µM",16.4%
same,"viability, T/C","second compound 0.003 µM, first compound 0.03 µM",16.1%
same,"viability, T/C","second compound 0.003 µM, first compound 0.0949 µM",13.4%
same,"viability, T/C","second compound 0.003 µM, first compound 0.3 µM",14%
same,"viability, T/C","second compound 0.00949 µM, first compound 0.000949 µM",3.79%
same,"viability, T/C","second compound 0.00949 µM, first compound 0.003 µM",3.32%
same,"viability, T/C","second compound 0.00949 µM, first compound 0.00949 µM",3.11%
same,"viability, T/C","second compound 0.00949 µM, first compound 0.03 µM",3.28%
same,"viability, T/C","second compound 0.00949 µM, first compound 0.0949 µM",3.1%
same,"viability, T/C","second compound 0.00949 µM, first compound 0.3 µM",3.34%
same,"viability, T/C","second compound 0.03 µM, first compound 0.000949 µM",2.49%
same,"viability, T/C","second compound 0.03 µM, first compound 0.003 µM",2.47%
same,"viability, T/C","second compound 0.03 µM, first compound 0.00949 µM",2.92%
same,"viability, T/C","second compound 0.03 µM, first compound 0.03 µM",2.25%
same,"viability, T/C","second compound 0.03 µM, first compound 0.0949 µM",2.41%
same,"viability, T/C","second compound 0.03 µM, first compound 0.3 µM",2.31%
same,"viability, T/C","second compound 0.0949 µM, first compound 0.000949 µM",2.12%
same,"viability, T/C","second compound 0.0949 µM, first compound 0.003 µM",2.87%
same,"viability, T/C","second compound 0.0949 µM, first compound 0.00949 µM",2.12%
same,"viability, T/C","second compound 0.0949 µM, first compound 0.03 µM",2.27%
same,"viability, T/C","second compound 0.0949 µM, first compound 0.0949 µM",1.31%
same,"viability, T/C","second compound 0.0949 µM, first compound 0.3 µM",1.12%
same,"viability, T/C","second compound 0.3 µM, first compound 0.000949 µM",1.75%
same,"viability, T/C","second compound 0.3 µM, first compound 0.003 µM",2.65%
same,"viability, T/C","second compound 0.3 µM, first compound 0.00949 µM",2.22%
same,"viability, T/C","second compound 0.3 µM, first compound 0.03 µM",1.86%
same,"viability, T/C","second compound 0.3 µM, first compound 0.0949 µM",1.47%
same,"viability, T/C","second compound 0.3 µM, first compound 0.3 µM",1.58%
